Where two headings read alike, the source gives them in different places.
How the values were obtained:
FKBP = FKBP (Homo sapiens, UniProt P62942); assay: FKBP competitive binding assay based on fluorescence polarization (FP); conditions: for IC50: competitive FP binding
Procedure: A Competitive Binding FP Assay is described in detail in WO99/36553 and WO96/41865. That assay permits the in vitro measurement of an IC50 value for a given compound which reflects its ability to bind to an FKBP-protein in competition with a labeled FKBP ligand, such as, for example, FK506.
(§1) A diverse group of C7-modified 28-epirapalogs were prepared as described in Example 4.

murine splenocyte = murine splenocyte assay for immunosuppressive activity; type: cell-based; conditions: for IC50: read-out: Splenocyte IC50; for immunosuppressive activity compared with rapamycin: splenocyte proliferation assay, versus rapamycin
Procedure: 3. Conventional murine splenocyte assay for immunosuppressive activity.
as §1

[1] = molecular target: T1, transcriptional switch components containing FKBP and 2098L mutant FRB domains (Homo sapiens, UniProt P42345+P62942); assay: transcription assay in engineered HD1080 cells expressing SEAP (txn 2098L); type: cell-based; conditions: for TXN 2098L peak relative to rapamycin peak: superscript mark on EC50 cell
T1 construct: transcriptional switchcomponents containing FKBP and 2098L mutant FRB domains, respectively; fused on or other part: The two switch components are separate chimeric proteins; Neither is given for this cell line
T1 sequence (P62942 2-108 limits assumed, stated change not applied, other chains not shown): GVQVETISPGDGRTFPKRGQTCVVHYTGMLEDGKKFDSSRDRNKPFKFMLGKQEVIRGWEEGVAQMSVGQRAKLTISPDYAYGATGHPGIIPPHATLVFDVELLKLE
Description: The ability of the rapalogs to multimerize chimeric proteins may be measured in cell-based assays by measuring the occurrence of an event triggered by such multimerization. For instance, one may use cells containing and capable of expressing DNA encoding a first chimeric protein comprising one or more FKBP-domains and one or more effector domains as well as DNA encoding a second chimeric protein containing an FRB domain and one or more effector domains capable, upon multimerization, of actuating a biological response. We prefer to use cells which further contain a reporter gene under the transcriptional control of a regulatory element (i.e., promoter) which is responsive to the multimerization of the chimeric proteins. The design and preparation of illustrative components and their use in so engineered cells is described in WO99/36553 and WO96/41865 and the other international patent applications referred to in this and the foregoing section. (See also W099/10510 for additional guidance on the design, assembly and delivery of nucleic acids to render cells and animals responsive to rapalogs of interest and for additional guidance on applications of such systems.) The cells are grown or maintained in culture. A rapalog is added to the culture medium and after a suitable incubation period (to permit gene expression and secretion, e.g. several hours or overnight) the presence of the reporter gene product is measured. Positive results, i.e., multimerization, correlates with transcription of the reporter gene as observed by the appearance of the reporter gene product. The reporter gene product may be a conveniently detectable protein (e.g. by ELISA) or may catalyze the production of a conveniently detectable product (e.g. colored). Materials and methods for producing appropriate cell lines for conducting such assays are disclosed in the international patent applications cited above in this section.
2. EC50 values of the various compounds was measured in a transcription assay using genetically engineered HD1080 cells which constitutively express transcriptional switch components containing FKBP and 2098L mutant FRB domains, respectively and which regulatably express secreted alkaline phosphatase (SEAP) in the presence of a compound which multimerizes the switch components. The assay is a literature assay. See WO 99/36553, e.g. Example 12, pages 120–121 (& FIG. 2D) […]

[2] = methods of Example 2.5, read-out: FKBP IC50
[3] = mouse splenocyte assay, methods of Example 2.5
[4] = cellular transcription assay, methods of Example 2.5, read-out: TXN 2098L EC50
[5] = FKBP IC50 (nM), methods of Example 2.5
[6] = Mus musculus, Splenocyte, mouse splenocyte assay, methods of Example 2.5
[7] = read-out: TXN 2098L EC50, cellular transcription assay, methods of Example 2.5
[8] = Mus musculus, Splenocyte, murine splenocyte assay, immunosuppressive activity

Chain of FKBP (P62942 whole entry): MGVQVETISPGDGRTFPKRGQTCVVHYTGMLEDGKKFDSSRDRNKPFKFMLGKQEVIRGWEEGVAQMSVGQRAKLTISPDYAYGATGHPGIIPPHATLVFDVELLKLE

| SMILES | IC50 (FKBP; [2]) | EC50 [1, 4] | IC50 (murine splenocyte; [6]) | IC50 (murine splenocyte; [3]) | TXN 2098L peak relative to rapamycin peak [1] | further results |
| --- | --- | --- | --- | --- | --- | --- |
| COC1CC(CC(C)C2CC(=O)C(C)C=C(C)C(O)C(OC)C(=O)C(C)CC(C)C=CC=CC=C(C)C(NS(=O)(=O)N(C)C)CC3CCC(C)C(O)(O3)C(=O)C(=O)N3CCCCC3C(=O)O2)CCC1O (stereo not drawn) [28-epi-7R-dimethylsulfamide] | 29 nM | 20 nM |  | 1840 nM | (+) (peak was >125% rapamycin peak) |  |
| CCN([C@@H]1C[C@@H]2CC[C@@H](C)[C@@](O)(O2)C(=O)C(=O)N2CCCC[C@H]2C(=O)O[C@H]([C@H](C)C[C@@H]2CC[C@@H](O)[C@H](OC)C2)CC(=O)[C@H](C)/C=C(\C)[C@H](O)[C@@H](OC)C(=O)[C@H](C)C[C@H](C)/C=C/C=C/C=C/1C)S(C)(=O)=O [28-epi-7R-N-Et-methanesulfonamide] |  |  | 189 nM |  | (+) (peak was >125% rapamycin peak) | IC50 (FKBP; [5]): 31 nM; EC50 [1, 7]: 8 nM |
| COc1ccccc1COC1CC2CCC(C)C(O)(O2)C(=O)C(=O)N2CCCCC2C(=O)OC(C(C)CC2CCC(O)C(OC)C2)CC(=O)C(C)C=C(C)C(O)C(OC)C(=O)C(C)CC(C)C=CC=CC=C1C (single isomer, unassigned) [28-epi-7S-2′-methoxybenzyloxy] | 33 nM | 15 nM |  | 25 nM |  |  |
| CCN([C@H]1C[C@@H]2CC[C@@H](C)[C@@](O)(O2)C(=O)C(=O)N2CCCC[C@H]2C(=O)O[C@H]([C@H](C)C[C@@H]2CC[C@@H](O)[C@H](OC)C2)CC(=O)[C@H](C)/C=C(\C)[C@H](O)[C@@H](OC)C(=O)[C@H](C)C[C@H](C)/C=C/C=C/C=C/1C)S(C)(=O)=O [28-epi-7S-N-Et-methanesulfonamide] |  |  | 1360 nM |  | (+) (peak was >125% rapamycin peak) | IC50 (FKBP; [5]): 31 nM; EC50 [1, 7]: 8 nM |
| COc1ccccc1COC1CC2CCC(C)C(O)(O2)C(=O)C(=O)N2CCCCC2C(=O)OC(C(C)CC2CCC(O)C(OC)C2)CC(=O)C(C)C=C(C)C(O)C(OC)C(=O)C(C)CC(C)C=CC=CC=C1C (single isomer, unassigned) [28-epi-7R-2′-methoxybenzyloxy] | 4.6 nM | 24 nM |  | 653 nM |  |  |
| COCO[C@@H]1CC[C@@H](C[C@@H](C)[C@@H]2CC(=O)[C@H](C)/C=C(\C)[C@H](O)[C@@H](OC)C(=O)[C@H](C)C[C@H](C)/C=C/C=C/C=C(\C)[C@@H](OC)C[C@@H]3CC[C@@H](C)[C@@](O)(O3)C(=O)C(=O)N3CCCC[C@H]3C(=O)O2)C[C@H]1OC [43-O-MOM-28-epirapamycin] |  |  |  |  |  | IC50 (FKBP; fluorescein-labelled FK506 probe (AP1491), read-out: FKBP binding IC50): 27 nM; IC50 (murine splenocyte; [8]): 0.6 to 1.6 nM; EC50 ([1]; HD1080 cells, FKBP and 2098L mutant FRB switch, SEAP reporter, read-out: txn 2098L EC50): 7 nM |
| CO[C@@H]1C[C@H](C[C@@H](C)[C@@H]2CC(=O)[C@H](C)/C=C(\C)[C@H](O)[C@@H](OC)C(=O)[C@H](C)C[C@H](C)/C=C/C=C/C=C(\C)[C@@H](N(C)C(=O)OCc3ccccc3)C[C@@H]3CC[C@@H](C)[C@@](O)(O3)C(=O)C(=O)N3CCCC[C@H]3C(=O)O2)CC[C@H]1O [28-epi-7S-N-Me-benzylcarbamate] | 40 nM | 9 nM |  | 158 nM |  |  |
| CCOC(=O)N[C@@H]1C[C@@H]2CC[C@@H](C)[C@@](O)(O2)C(=O)C(=O)N2CCCC[C@H]2C(=O)O[C@H]([C@H](C)C[C@@H]2CC[C@@H](O)[C@H](OC)C2)CC(=O)[C@H](C)/C=C(\C)[C@H](O)[C@@H](OC)C(=O)[C@H](C)C[C@H](C)/C=C/C=C/C=C/1C [28-epi-7R-ethylcarbamate] |  |  | > 5000 nM |  | (+) (peak was >125% rapamycin peak) | IC50 (FKBP; [5]): 7.5 nM; EC50 [1, 7]: 9 nM |
| CO[C@@H]1C[C@H](C[C@@H](C)[C@@H]2CC(=O)[C@H](C)/C=C(\C)[C@H](O)[C@@H](OC)C(=O)[C@H](C)C[C@H](C)/C=C/C=C/C=C(\C)[C@H](NS(=O)(=O)N(C)c3ccccc3)C[C@@H]3CC[C@@H](C)[C@@](O)(O3)C(=O)C(=O)N3CCCC[C@H]3C(=O)O2)CC[C@H]1O [28-epi-7R-methylphenylsulfamide] | 38 nM | 27 nM |  | 22 nM |  |  |
| COC1CC(CC(C)C2CC(=O)C(C)C=C(C)C(O)C(OC)C(=O)C(C)CC(C)C=CC=CC=C(C)C(NC(=O)Oc3ccccc3)CC3CCC(C)C(O)(O3)C(=O)C(=O)N3CCCCC3C(=O)O2)CCC1O (stereo not drawn) [28-epi-7S-phenylcarbamate] | 18 nM | 14 nM |  | > 5000 nM | (+) (peak was >125% rapamycin peak) |  |
| CO[C@H]1C[C@@H]2CC[C@@H](C)[C@@](O)(O2)C(=O)C(=O)N2CCCCC2C(=O)O[C@H]([C@H](C)C[C@@H]2CC[C@@H](O)[C@H](OC)C2)CC(=O)[C@H](C)/C=C(\C)[C@H](O)[C@@H](OC)C(=O)[C@H](C)C[C@H](C)/C=C/C=C/C=C/1C (stereo partly shown) [28-epirapamycin] |  |  | 0.9 to 3.5 nM |  |  | affinity towards FKBP, times weaker than that of rapamycin (FKBP; fluorescence polarization competition assay, versus rapamycin): about 5 times; IC50 (murine splenocyte; [8]): 0.9 to 3.5 nM; immunosuppressive activity compared with rapamycin (murine splenocyte): less potent immunosuppressive activity; immunosuppressive activity compared with rapamycin (murine splenocyte; listed as 2): more than an order of magnitude reduced |

More lines, main results first:

| IC50 (FKBP; [2]) | EC50 [1, 4] | IC50 (murine splenocyte; [6]) | SMILES | IC50 (murine splenocyte; [3]) | TXN 2098L peak relative to rapamycin peak [1] | further results |
| --- | --- | --- | --- | --- | --- | --- |
| 19 nM | 35 nM | 2630 nM | CCCS(=O)(=O)N(C)C1CC2CCC(C)C(O)(O2)C(=O)C(=O)N2CCCCC2C(=O)OC(C(C)CC2CCC(O)C(OC)C2)CC(=O)C(C)C=C(C)C(O)C(OC)C(=O)C(C)CC(C)C=CC=CC=C1C (single isomer, unassigned) [28-epi-7S-N-Me-propanesulfonamide] |  | (+) (peak was >125% rapamycin peak) |  |
| 7.2 nM | 24 nM | 91 nM | CO[C@@H]1C[C@H](C[C@@H](C)[C@@H]2CC(=O)[C@H](C)/C=C(\C)[C@H](O)[C@@H](OC)C(=O)[C@H](C)C[C@H](C)/C=C/C=C/C=C(\C)[C@H](NS(C)(=O)=O)C[C@@H]3CC[C@@H](C)[C@@](O)(O3)C(=O)C(=O)N3CCCC[C@H]3C(=O)O2)CC[C@H]1O [28-epi-7R-methanesulfonamide] |  |  |  |
| 19 nM | 9 nM | 200 to 1950 nM | CO[C@@H]1C[C@H](C[C@@H](C)[C@@H]2CC(=O)[C@H](C)/C=C(\C)[C@H](O)[C@@H](OC)C(=O)[C@H](C)C[C@H](C)/C=C/C=C/C=C(\C)[C@H](Oc3ccccc3)C[C@@H]3CC[C@@H](C)[C@@](O)(O3)C(=O)C(=O)N3CCCC[C@H]3C(=O)O2)CC[C@H]1O [28-epi-7R-phenyloxy] |  | (−) (peak was <80% rapamycin peak) |  |
| 16 nM | 24 nM | 7 nM | CO[C@@H]1C[C@H](C[C@@H](C)[C@@H]2CC(=O)[C@H](C)/C=C(\C)[C@H](O)[C@@H](OC)C(=O)[C@H](C)C[C@H](C)/C=C/C=C/C=C(\C)[C@@H](NS(C)(=O)=O)C[C@@H]3CC[C@@H](C)[C@@](O)(O3)C(=O)C(=O)N3CCCC[C@H]3C(=O)O2)CC[C@H]1O [28-epi-7S-methanesulfonamide] |  |  |  |
| 120 nM | 9 nM |  | CCOC(=O)N(C)C1CC2CCC(C)C(O)(O2)C(=O)C(=O)N2CCCCC2C(=O)OC(C(C)CC2CCC(O)C(OC)C2)CC(=O)C(C)C=C(C)C(O)C(OC)C(=O)C(C)CC(C)C=CC=CC=C1C (single isomer, unassigned) [28-epi-7R-N-methyl-ethylcarbamate] | 255 nM |  |  |
| 30 nM | 12 nM |  | CCOC(=O)N(C)C1CC2CCC(C)C(O)(O2)C(=O)C(=O)N2CCCCC2C(=O)OC(C(C)CC2CCC(O)C(OC)C2)CC(=O)C(C)C=C(C)C(O)C(OC)C(=O)C(C)CC(C)C=CC=CC=C1C (single isomer, unassigned) [28-epi-7S-N-methyl-ethylcarbamate] | 2290 nM | (−) (peak was <80% rapamycin peak) |  |

Reference: patent US7196192B2, “28-epirapalogs” (Ariad Gene Therapeutics, Inc., priority 1999, dated 2007)
